Results: patent publication US20100076015A1, “Aminopyridine Derivatives” (VANTIA LIMITED, priority 2008, published 2010)

Target: T1, Human KLK1 (Homo sapiens, UniProt P06870)
T1 construct: purchased Callbiochem (Calbiochem)
Assay: Determination of the IC50 for KLK1 (fluorogenic substrate H-DVal-Leu-Arg-AFC)
Assay type: biochemical
Conditions: 37° C.
Procedure: Determination of the IC50 for KLK1
KLK1 inhibitory activity in vitro was determined using standard published methods (see e.g. Johansen et al., Int. J. Tiss. Reac. 1986, 8, 185; Shori et al., Biochem. Pharmacol., 1992, 43, 1209; Stürzebecher et al., Biol. Chem. Hoppe-Seyler, 1992, 373, 1025). Human KLK1 (Callbiochem) was incubated at 37° C. with the fluorogenic substrate H-DVal-Leu-Arg-AFC and various concentrations of the test compound. Residual enzyme activity (initial rate of reaction) was determined by measuring the change in optical absorbance at 410 nm and the IC50 value for the test compound was determined.

T1 sequence (P06870 25-262): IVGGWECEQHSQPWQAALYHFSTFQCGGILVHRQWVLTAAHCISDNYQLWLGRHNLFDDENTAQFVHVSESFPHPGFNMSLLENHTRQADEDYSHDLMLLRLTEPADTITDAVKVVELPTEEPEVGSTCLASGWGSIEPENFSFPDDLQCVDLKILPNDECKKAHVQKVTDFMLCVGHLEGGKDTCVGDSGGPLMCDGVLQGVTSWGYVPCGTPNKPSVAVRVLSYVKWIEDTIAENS

Row | SMILES | IC50 [nM]
1 | CCC(C)[C@@H](NC)C(=O)N[C@@H](Cc1ccc(F)c(F)c1)C(=O)NCc1ccc(N)nc1 (single isomer, unassigned) [Example 53] | 11.2
2 | CC(C)N1CCC[C@@H]1C(=O)N[C@@H](Cc1ccc(F)c(F)c1)C(=O)NCc1ccc(N)nc1 [Example 6, (R)-1-Isopropyl-pyrrolidine-2-carboxylic acid [(S)-1-[(6-amino-pyridin-3-ylmethyl)-carbamoyl]-2-(3,4-difluoro-phenyl)-ethyl]-amide] | 2
3 | Nc1ccc(CNC(=O)[C@H](Cc2ccc(Cl)c(Cl)c2)NC(=O)[C@H]2CCCN2Cc2ccccc2)cn1 [Example 7, (R)-1-Benzyl-pyrrolidine-2-carboxylic acid [(S)-1-[(6-amino-pyridin-3-ylmethyl)-carbamoyl]-2-(3,4-dichloro-phenyl)-ethyl]-amide] | 10.5
4 | CCC(C)[C@H](C(=O)N[C@@H](Cc1ccc(Cl)c(Cl)c1)C(=O)NCc1ccc(N)nc1)N(C)S(C)(=O)=O (stereo partly drawn) [Example 8, (R)-2-(Methanesulfonyl-methyl-amino)-3-methyl-pentanoic acid [(S)-1-[(6-amino-pyridin-3-ylmethyl)-carbamoyl]-2-(3,4-dichloro-phenyl)-ethyl]-amide] | 1.7
5 | Cc1nc(N)ccc1CNC(=O)[C@H](Cc1cccc2ccccc12)NC(=O)[C@H]1CCCN1C [Example 9, (R)-1-Methyl-pyrrolidine-2-carboxylic acid [(S)-1-[(6-amino-2-methyl-pyridin-3-ylmethyl)-carbamoyl]-2-naphthalen-1-yl-ethyl]-amide] | 6.3
6 | CCN(CC)CC(=O)N[C@@H](Cc1ccc(F)c(F)c1)C(=O)NCc1ccc(N)nc1 [Example 10, (S)—N-(6-Amino-pyridin-3-ylmethyl)-2-(2-diethylamino-acetylamino)-3-(3,4-difluoro-phenyl)-propionamide] | 13.7
7 | CCC(C)[C@H](N)C(=O)N[C@@H](CC1CCCC2CCCCC21)C(=O)NCc1ccc(N)nc1 (stereo partly drawn) [Example 12, (S)-2-Amino-3-methyl-pentanoic acid [(S)-1-[(6-amino-pyridin-3-ylmethyl)-carbamoyl]-2-(decahydro-naphthalen-1-yl)-ethyl]-amide] | 6.3
8 | CC(C)[C@@H](N)C(=O)N[C@@H](CC1CCCC2CCCCC21)C(=O)NCc1ccc(N)nc1 (stereo partly drawn) [Example 14, (R)-2-Amino-N-[(S)-1-[(6-amino-pyridin-3-ylmethyl)-carbamoyl]-2-(decahydro-naphthalen-1-yl)-ethyl]-3-methyl-butyramide] | 0.96
9 | Nc1ccc(CNC(=O)[C@H](CC2CCCC3CCCCC32)NC(=O)[C@H]2CCCN2)cn1 (stereo partly drawn) [Example 15, (R)-Pyrrolidine-2-carboxylic acid [(S)-1-[(6-amino-pyridin-3-ylmethyl)-carbamoyl]-2-(decahydro-naphthalen-1-yl)-ethyl]-amide] | 1.2
10 | CC(C)C[C@@H](N)C(=O)N[C@@H](CC1CCCC2CCCCC21)C(=O)NCc1ccc(N)nc1 (stereo partly drawn) [Example 16, (R)-2-Amino-4-methyl-pentanoic acid [(S)-1-[(6-amino-pyridin-3-ylmethyl)-carbamoyl]-2-(decahydro-naphthalen-1-yl)-ethyl]-amide] | 1.1
11 | NCC(=O)N[C@@H](CC1CCCC2CCCCC21)C(=O)NCc1ccc(N)nc1 (stereo partly drawn) [Example 17, (S)-2-(2-Amino-acetylamino)-N-(6-amino-pyridin-3-ylmethyl)-3-(decahydro-naphthalen-1-yl)-propionamide] | 211
12 | C[C@@H](N)C(=O)N[C@@H](CC1CCCC2CCCCC21)C(=O)NCc1ccc(N)nc1 (stereo partly drawn) [Example 18, (R)-2-Amino-N-[(S)-1-[(6-amino-pyridin-3-ylmethyl)-carbamoyl]-2-(decahydro-naphthalen-1-yl)-ethyl]-propionamide] | 5
13 | CNCC(=O)N[C@@H](CC1CCCC2CCCCC21)C(=O)NCc1ccc(N)nc1 (stereo partly drawn) [Example 19, (S)—N-(6-Amino-pyridin-3-ylmethyl)-3-(decahydro-naphthalen-1-yl)-2-(2-methylamino-acetylamino)-propionamide] | 21.6
14 | CCC(C)[C@@H](NC)C(=O)N[C@@H](CC1CCCCC1)C(=O)NCc1ccc(N)nc1 (stereo partly drawn) [Example 21, (R)-3-Methyl-2-methylamino-pentanoic acid {(S)-1-[(6-amino-pyridin-3-ylmethyl)-carbamoyl]-2-cyclohexyl-ethyl}-amide] | 22.8
15 | CC(C)[C@@H](N)C(=O)N[C@@H](Cc1cccc2ccccc12)C(=O)NCc1ccc(N)nc1 [Example 22, (R)-2-Amino-N-{(S)-1-[(6-amino-pyridin-3-ylmethyl)-carbamoyl]-2-naphthalen-1-yl-ethyl}-3-methyl-butyramide] | 2.2
16 | CCC(C)[C@@H](N)C(=O)N[C@@H](Cc1ccccc1Cl)C(=O)NCc1ccc(N)nc1 (stereo partly drawn) [Example 24, (R)-2-Amino-3-methyl-pentanoic acid [(S)-1-[(6-amino-pyridin-3-ylmethyl)-carbamoyl]-2-(2-chloro-phenyl)-ethyl]-amide] | 27.8
17 | CCC(C)[C@@H](N)C(=O)N[C@@H](Cc1ccccc1C)C(=O)NCc1ccc(N)nc1 (stereo partly drawn) [Example 28, (R)-2-Amino-3-methyl-pentanoic acid {(S)-1-[(6-amino-pyridin-3-ylmethyl)-carbamoyl]-2-o-tolyl-ethyl}-amide] | 32.1
18 | CCC(C)[C@@H](N)C(=O)N[C@@H](Cc1cccc(C#N)c1)C(=O)NCc1ccc(N)nc1 (stereo partly drawn) [Example 31, (R)-2-Amino-3-methyl-pentanoic acid [(S)-1-[(6-amino-pyridin-3-ylmethyl)-carbamoyl]-2-(3-cyano-phenyl)-ethyl]-amide] | 18.1
19 | CCC(C)[C@@H](N)C(=O)N[C@@H](Cc1ccc(F)c(F)c1)C(=O)NCc1ccc(N)nc1 (stereo partly drawn) [Example 32, (R)-2-Amino-3-methyl-pentanoic acid [(S)-1-[(6-amino-pyridin-3-ylmethyl)-carbamoyl]-2-(3,4-difluoro-phenyl)-ethyl]-amide] | 2.8
20 | CCC(C)[C@@H](N)C(=O)N[C@@H](Cc1ccc(F)cc1)C(=O)NCc1ccc(N)nc1 (stereo partly drawn) [Example 33, (R)-2-Amino-3-methyl-pentanoic acid [(S)-1-[(6-amino-pyridin-3-ylmethyl)-carbamoyl]-2-(4-fluoro-phenyl)-ethyl]-amide] | 5.3
21 | CCC(C)[C@@H](N)C(=O)N[C@@H](Cc1ccc2ccccc2c1)C(=O)NCc1ccc(N)nc1 (stereo partly drawn) [Example 34, (R)-2-Amino-3-methyl-pentanoic acid {(S)-1-[(6-amino-pyridin-3-ylmethyl)-carbamoyl]-2-naphthalen-2-yl-ethyl}-amide] | 3.3
22 | CCC(C)[C@@H](N)C(=O)N[C@@H](Cc1ccc(Cl)c(Cl)c1)C(=O)NCc1ccc(N)nc1 (stereo partly drawn) [Example 35, (R)-2-Amino-3-methyl-pentanoic acid [(S)-1-[(6-amino-pyridin-3-ylmethyl)-carbamoyl]-2-(3,4-dichloro-phenyl)-ethyl]-amide] | 0.47
23 | CCC(C)[C@@H](N)C(=O)N[C@@H](Cc1ccc(Cl)cc1)C(=O)NCc1ccc(N)nc1 (stereo partly drawn) [Example 36, (R)-2-Amino-3-methyl-pentanoic acid [(S)-1-[(6-amino-pyridin-3-ylmethyl)-carbamoyl]-2-(4-chloro-phenyl)-ethyl]-amide] | 1.6
24 | CCC(C)[C@@H](N)C(=O)N[C@@H](Cc1ccc(O)cc1)C(=O)NCc1ccc(N)nc1 (stereo partly drawn) [Example 37, (R)-2-Amino-3-methyl-pentanoic acid [(S)-1-[(6-amino-pyridin-3-ylmethyl)-carbamoyl]-2-(4-hydroxy-phenyl)-ethyl]-amide] | 626
